In US20230398130A1, “METHODS AND COMPOSITIONS FOR DIFFERENTIATING STEM CELLS” (Massachusetts Institute of Technology, priority 2020, published 2023):

Key:
ISC-enriched organoids [1] = assay: Primary screen, 384-well 2.5-D organoid differentiation (ENR+CD, 6 days): basal lysozyme secretion (LYZ.NS); format: cell-based, murine; conditions: primary screen; for Dose.FC.LYZ.NS: FC vs plate median; for SSMD.LYZ.NS: strictly standardized mean difference
Source text: (§1) High-throughput screening.

ISC-enriched organoids [2] = assay: Primary screen, 384-well 2.5-D organoid differentiation (ENR+CD, 6 days): carbachol-induced lysozyme secretion (LYZ.S); format: cell-based, murine; conditions: primary screen; for Dose.FC.LYZ.S: FC vs plate median; for Z.LYZ.S: standard z score; for SSMD.LYZ.S: strictly standardized mean difference
Source text: as §1

ISC-enriched organoids [3] = assay: Primary screen, 384-well 2.5-D organoid differentiation (ENR+CD, 6 days, Target Selective Inhibitor Library, vs whole-plate median): ATP (CellTiter-Glo 3D, CTG); conditions: primary screen; for Dose.FC.CTG: FC vs plate median; for SSMD.CTG: strictly standardized mean difference
[4] = dose 0.08 uM, standard z score of FC
[5] = dose 0.40 uM, standard z score of FC
[6] = dose 2.00 uM, standard z score of FC
[7] = dose 10.00 uM, standard z score of FC
[8] = Dose 10.00 uM, standard z score
[9] = 1st of the 4 dose lines of the treatment (dose not given)
[10] = 2nd of the 4 dose lines of the treatment (dose not given)
[11] = 3rd of the 4 dose lines of the treatment (dose not given)
[12] = 4th of the 4 dose lines of the treatment (dose not given)

C=CC(=O)Nc1cccc(Nc2nc(Nc3ccc(OCCOC)cc3)ncc2F)c1 [AVL-292] showed a Dose.FC.LYZ.NS (ISC-enriched organoids [1]; dose 0.08 uM, ENR+CD 6 days) of 0.095 log 2 fold change, a Z.LYZ.NS (ISC-enriched organoids [1]; [4]) of 0.831 and a Dose.FC.LYZ.NS (ISC-enriched organoids [1]; dose 0.40 uM, ENR+CD 6 days) of 0.052 log 2 fold change. The Z.LYZ.NS (ISC-enriched organoids [1]; [5]) was 0.451, the Dose.FC.LYZ.NS (ISC-enriched organoids [1]; dose 2.00 uM, ENR+CD 6 days) was −0.112 log 2 fold change and the Z.LYZ.NS (ISC-enriched organoids [1]; [6]) was −0.979. It also gave a Dose.FC.LYZ.NS (ISC-enriched organoids [1]; dose 10.00 uM, ENR+CD 6 days) of −0.213 log 2 fold change, a Z.LYZ.NS (ISC-enriched organoids [1]; [7]) of −1.858 and a Dose.FC.LYZ.S (ISC-enriched organoids [2]; dose 0.08 uM, ENR+CD 6 days) of 0.235 log 2 fold change. The Dose.FC.LYZ.S (ISC-enriched organoids [2]; dose 0.40 uM, ENR+CD 6 days) was 0.106 log 2 fold change, the Dose.FC.LYZ.S (ISC-enriched organoids [2]; dose 2.00 uM, ENR+CD 6 days) was −0.206 log 2 fold change and the Dose.FC.LYZ.S (ISC-enriched organoids [2]; dose 10.00 uM, ENR+CD 6 days) was −0.376 log 2 fold change. For the same compound, the Dose.FC.CTG (ISC-enriched organoids [3]; dose 0.08 uM, ENR+CD 6 days) was 0.217 log 2 fold change, the Z.CTG (ISC-enriched organoids [3]; [4]) was 0.518 and the Dose.FC.CTG (ISC-enriched organoids [3]; dose 0.40 uM, ENR+CD 6 days) was 0.057 log 2 fold change. It also gave a Z.CTG (ISC-enriched organoids [3]; [5]) of 0.135, a Dose.FC.CTG (ISC-enriched organoids [3]; dose 2.00 uM, ENR+CD 6 days) of −0.058 log 2 fold change and a Z.CTG (ISC-enriched organoids [3]; [6]) of −0.138. For the same compound, the Dose.FC.CTG (ISC-enriched organoids [3]; dose 10.00 uM, ENR+CD 6 days) was −0.778 log 2 fold change and the Z.CTG (ISC-enriched organoids [3]; [7]) was −1.859.
Compound O=C(Oc1cc(S(=O)(=O)c2ccccc2)ccc1[N+](=O)[O-])c1ccc(Cl)cc1 [BTB06584] has a Dose.FC.LYZ.NS (ISC-enriched organoids [1]; dose 0.08 uM, ENR+CD 6 days) of 0.091 log 2 fold change, a Z.LYZ.NS (ISC-enriched organoids [1]; [4]) of 0.795 and a Dose.FC.LYZ.NS (ISC-enriched organoids [1]; dose 0.40 uM, ENR+CD 6 days) of 0.025 log 2 fold change. It also gave a Z.LYZ.NS (ISC-enriched organoids [1]; [5]) of 0.214, a Dose.FC.LYZ.NS (ISC-enriched organoids [1]; dose 2.00 uM, ENR+CD 6 days) of 0.024 log 2 fold change and a Z.LYZ.NS (ISC-enriched organoids [1]; [6]) of 0.206. It also gave a Dose.FC.LYZ.NS (ISC-enriched organoids [1]; dose 10.00 uM, ENR+CD 6 days) of −0.031 log 2 fold change, a Z.LYZ.NS (ISC-enriched organoids [1]; [7]) of −0.268 and a Dose.FC.LYZ.S (ISC-enriched organoids [2]; dose 0.08 uM, ENR+CD 6 days) of 0.222 log 2 fold change. It also gave a Dose.FC.LYZ.S (ISC-enriched organoids [2]; dose 0.40 uM, ENR+CD 6 days) of 0.042 log 2 fold change, a Dose.FC.LYZ.S (ISC-enriched organoids [2]; dose 2.00 uM, ENR+CD 6 days) of 0.039 log 2 fold change and a Dose.FC.LYZ.S (ISC-enriched organoids [2]; dose 10.00 uM, ENR+CD 6 days) of 0.019 log 2 fold change. The Dose.FC.CTG (ISC-enriched organoids [3]; dose 0.08 uM, ENR+CD 6 days) was 0.275 log 2 fold change, the Z.CTG (ISC-enriched organoids [3]; [4]) was 0.657 and the Dose.FC.CTG (ISC-enriched organoids [3]; dose 0.40 uM, ENR+CD 6 days) was 0.288 log 2 fold change. It also gave a Z.CTG (ISC-enriched organoids [3]; [5]) of 0.688, a Dose.FC.CTG (ISC-enriched organoids [3]; dose 2.00 uM, ENR+CD 6 days) of −0.180 log 2 fold change and a Z.CTG (ISC-enriched organoids [3]; [6]) of −0.431. It also gave a Dose.FC.CTG (ISC-enriched organoids [3]; dose 10.00 uM, ENR+CD 6 days) of 0.199 log 2 fold change and a Z.CTG (ISC-enriched organoids [3]; [7]) of 0.475.
CC(C)(C)Cn1c(N)nc2ccc(-c3[nH]c(C(C)(C)C)nc3-c3ccc(F)cc3)nc21 [LY2228820] gave a Dose.FC.LYZ.NS (ISC-enriched organoids [1]; Dose 0.08 uM) of 0.065 log 2 fold change, a Z.LYZ.NS (ISC-enriched organoids [1]; Dose 0.08 uM, standard z score) of 0.569 and a Dose.FC.LYZ.NS (ISC-enriched organoids [1]; Dose 0.40 uM) of −0.100 log 2 fold change. The Z.LYZ.NS (ISC-enriched organoids [1]; Dose 0.40 uM, standard z score) was −0.874, the Dose.FC.LYZ.NS (ISC-enriched organoids [1]; Dose 2.00 uM) was 0.043 log 2 fold change and the Z.LYZ.NS (ISC-enriched organoids [1]; Dose 2.00 uM, standard z score) was 0.377. It also gave a Dose.FC.LYZ.NS (ISC-enriched organoids [1]; Dose 10.00 uM) of −0.126 log 2 fold change, a Z.LYZ.NS (ISC-enriched organoids [1]; [8]) of −1.099 and an SSMD.LYZ.NS (ISC-enriched organoids [1]; [9]) of 0.186. The SSMD.LYZ.NS (ISC-enriched organoids [1]; [10]) was −0.798, the SSMD.LYZ.NS (ISC-enriched organoids [1]; [11]) was 0.123 and the SSMD.LYZ.NS (ISC-enriched organoids [1]; [12]) was −1.170. For the same compound, the Dose.FC.LYZ.S (ISC-enriched organoids [2]; Dose 0.08 uM) was −0.017 log 2 fold change, the Dose.FC.LYZ.S (ISC-enriched organoids [2]; Dose 0.40 uM) was −0.054 log 2 fold change and the Dose.FC.LYZ.S (ISC-enriched organoids [2]; Dose 2.00 uM) was −0.130 log 2 fold change. For the same compound, the Dose.FC.LYZ.S (ISC-enriched organoids [2]; Dose 10.00 uM) was −0.164 log 2 fold change, the Z.LYZ.S (ISC-enriched organoids [2]; [9]) was −0.107 and the Z.LYZ.S (ISC-enriched organoids [2]; [10]) was −0.348. The Z.LYZ.S (ISC-enriched organoids [2]; [11]) was −0.844, the Z.LYZ.S (ISC-enriched organoids [2]; [12]) was −1.062 and the SSMD.LYZ.S (ISC-enriched organoids [2]; [9]) was −0.087. The SSMD.LYZ.S (ISC-enriched organoids [2]; [10]) was −0.344, the SSMD.LYZ.S (ISC-enriched organoids [2]; [11]) was −0.692 and the SSMD.LYZ.S (ISC-enriched organoids [2]; [12]) was −1.268. For the same compound, the Dose.FC.CTG (ISC-enriched organoids [3]; Dose 0.08 uM) was −0.299 log 2 fold change, the Z.CTG (ISC-enriched organoids [3]; Dose 0.08 uM, standard z score) was −0.715 and the Dose.FC.CTG (ISC-enriched organoids [3]; Dose 0.40 uM) was −0.340 log 2 fold change. The Z.CTG (ISC-enriched organoids [3]; Dose 0.40 uM, standard z score) was −0.812, the Dose.FC.CTG (ISC-enriched organoids [3]; Dose 2.00 uM) was −0.339 log 2 fold change and the Z.CTG (ISC-enriched organoids [3]; Dose 2.00 uM, standard z score) was −0.810. For the same compound, the Dose.FC.CTG (ISC-enriched organoids [3]; Dose 10.00 uM) was −0.332 log 2 fold change, the Z.CTG (ISC-enriched organoids [3]; [8]) was −0.793 and the SSMD.CTG (ISC-enriched organoids [3]; [9]) was −0.908. It also gave an SSMD.CTG (ISC-enriched organoids [3]; [10]) of −0.614, an SSMD.CTG (ISC-enriched organoids [3]; [11]) of −0.794 and an SSMD.CTG (ISC-enriched organoids [3]; [12]) of −0.937.
Compound CCOC(=O)CCNc1cc(N2CCc3ccccc3CC2)nc(-c2ccccn2)n1.Cl [GSK J4 HCl] has a Dose.FC.LYZ.NS (ISC-enriched organoids [1]; Dose 0.08 uM) of 0.058 log 2 fold change, a Z.LYZ.NS (ISC-enriched organoids [1]; Dose 0.08 uM, standard z score) of 0.508 and a Dose.FC.LYZ.NS (ISC-enriched organoids [1]; Dose 0.40 uM) of 0.050 log 2 fold change. It also gave a Z.LYZ.NS (ISC-enriched organoids [1]; Dose 0.40 uM, standard z score) of 0.433, a Dose.FC.LYZ.NS (ISC-enriched organoids [1]; Dose 2.00 uM) of 0.018 log 2 fold change and a Z.LYZ.NS (ISC-enriched organoids [1]; Dose 2.00 uM, standard z score) of 0.153. For the same compound, the Dose.FC.LYZ.NS (ISC-enriched organoids [1]; Dose 10.00 uM) was −0.001 log 2 fold change, the Z.LYZ.NS (ISC-enriched organoids [1]; [8]) was −0.006 and the Dose.FC.LYZ.S (ISC-enriched organoids [2]; Dose 0.08 uM) was 0.086 log 2 fold change. For the same compound, the Dose.FC.LYZ.S (ISC-enriched organoids [2]; Dose 0.40 uM) was 0.109 log 2 fold change, the Dose.FC.LYZ.S (ISC-enriched organoids [2]; Dose 2.00 uM) was 0.041 log 2 fold change and the Dose.FC.LYZ.S (ISC-enriched organoids [2]; Dose 10.00 uM) was −0.002 log 2 fold change. It also gave a Dose.FC.CTG (ISC-enriched organoids [3]; Dose 0.08 uM) of 0.124 log 2 fold change, a Z.CTG (ISC-enriched organoids [3]; Dose 0.08 uM, standard z score) of 0.297 and a Dose.FC.CTG (ISC-enriched organoids [3]; Dose 0.40 uM) of 0.099 log 2 fold change. It also gave a Z.CTG (ISC-enriched organoids [3]; Dose 0.40 uM, standard z score) of 0.237, a Dose.FC.CTG (ISC-enriched organoids [3]; Dose 2.00 uM) of 0.002 log 2 fold change and a Z.CTG (ISC-enriched organoids [3]; Dose 2.00 uM, standard z score) of 0.006. For the same compound, the Dose.FC.CTG (ISC-enriched organoids [3]; Dose 10.00 uM) was 0.233 log 2 fold change and the Z.CTG (ISC-enriched organoids [3]; [8]) was 0.558.
